As usually defined, the IC50 is the concentration needed to halve the response being measured. The low end stands for greater potency in that assay, the high end for weaker potency in that assay.

For 31 molecules, IC50 results are on record in patent US11667651B2, “Aminopyridine derivatives as phosphatidylinositol phosphate kinase inhibitors” (HiberCell, Inc., priority 2017, dated 2023).

The target of this test is T1, PIP4K2A (Homo sapiens, UniProt P48426).
T1 sequence (P48426 1-406): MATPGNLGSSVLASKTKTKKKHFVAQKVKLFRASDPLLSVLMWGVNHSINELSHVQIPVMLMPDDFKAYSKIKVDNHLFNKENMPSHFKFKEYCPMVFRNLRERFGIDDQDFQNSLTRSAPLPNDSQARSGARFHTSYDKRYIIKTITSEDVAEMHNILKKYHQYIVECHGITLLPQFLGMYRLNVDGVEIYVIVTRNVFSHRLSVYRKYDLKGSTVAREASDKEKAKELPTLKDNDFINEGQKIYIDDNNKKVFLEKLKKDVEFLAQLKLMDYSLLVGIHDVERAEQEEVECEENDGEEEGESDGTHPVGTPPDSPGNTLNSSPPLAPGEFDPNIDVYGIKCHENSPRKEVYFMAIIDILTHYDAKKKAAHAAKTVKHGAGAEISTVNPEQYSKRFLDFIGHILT
The experiment in a line: Kinase Assay PIP4K2 A (Table 2). The settings on record: compounds listed under IC50 bins. Also on record: 4 nM PIP4K2A (full length protein, SignalChem); purchased SignalChem. The class given is biochemical. How it is done:
Dilution series of the compounds were prepared in DMSO at 100 times the final assay concentration (n1=n0/3 in 10 points). The compounds were further diluted to three times the assay concentration in assay buffer (20 mM MOPS pH 7.2, 25 mM magnesium chloride, 0.005% Tween 20). 6 μL of the diluted compounds were added to a 384 well assay plate followed by 9 μL of a mix consisting of 4 nM PIP4K2A (full length protein, SignalChem) and 100 μM PI(5)P diC8 (Tebu-Bio). Enzyme and compounds were pre-incubated at room temperature for 15 minutes.
Then 3 μL of a solution containing 60 μM ATP (Promega) in assay buffer was added to the wells containing compound and enzyme and mixing was performed by pipetting several times. The reaction was incubated at room temperature for 1 h. Then 18 μL of ADP-Glo™ Reagent (Promega) was added to stop the kinase reaction and deplete the unconsumed ATP, mixing was performed by pipetting several times. The plate was incubated at room temperature for 40 minutes before addition of 36 μL of Kinase Detection Reagent (Promega) to convert ADP to ATP and introduce luciferase and luciferin to detect ATP. The reaction was incubated at room temperature for 40 minutes before the luminescence was measured in a in a Victor 3V 1420 multilabel counter (Perkin Elmer).
Percent inhibition of the compounds as compared to dimethyl sulfoxide treated control samples was calculated. Compound concentration versus percent inhibition were fitted to generate IC50 values.

On to `CN(C)C(=O)c1ccc(-c2ccc(Nc3cncc(C(=O)N(C)C)c3)nc2)cc1` [Example 37, 5-((5-(4-(dimethylcarbamoyl)phenyl)pyridin-2-yl)amino)-N,N-dimethylnicotinamide], for which the IC50 was greater than 1 µM.
With `CN(C)C(=O)c1ccc(-c2ccc(Nc3cncc(N4CCCC4=O)c3)nc2)cc1` [Example 38, N,N-dimethyl-4-(6-((5-(2-oxopyrrolidin-1-yl)pyridin-3-yl)amino)pyridin-3-yl)benzamide] the figure was 0.01 to 0.1 µM; with `COc1cncc(Nc2ccc(-c3ccc(C(=O)N(C)C)cc3)cn2)c1` [Example 39, 4-(6-((5-methoxypyridin-3-yl)amino)pyridin-3-yl)-N,N-dimethylbenzamide], 0.1 to 1 µM.
To `CN(C)C(=O)c1ccc(-c2ccc(Nc3cncc(C4(C#N)CC4)c3)nc2)cc1` [Example 40, 4-(6-((5-(1-cyanocyclopropyl)pyridin-3-yl)amino)pyridin-3-yl)-N,N-dimethylbenzamide] belongs 0.01 to 0.1 µM.
To `CN(C)C(=O)c1ccc(-c2ccc(Nc3cncc(C4(C(N)=O)CC4)c3)nc2)cc1` [Example 41, 4-(6-((5-(1-carbamoylcyclopropyl)pyridin-3-yl)amino)pyridin-3-yl)-N,N-dimethylbenzamide] belongs 0.1 to 1 µM; to `CN(C)C(=O)c1ccc(-c2ccc(Nc3cnc4ccn(S(C)(=O)=O)c4c3)nc2)cc1` [Example 42, N,N-dimethyl-4-(6-((1-(methylsulfonyl)-1H-pyrrolo[3,2-b]pyridin-6-yl)amino)pyridin-3-yl)benzamide], 0.01 to 0.1 µM.
For `CC(=O)N1CCOc2ncc(Nc3ccc(-c4ccc(C(=O)N(C)C)cc4)cn3)cc21` [Example 43, 4-(6-((1-acetyl-2,3-dihydro-1H-pyrido[2,3-b][1,4]oxazin-7-yl)amino)pyridin-3-yl)-N,N-dimethylbenzamide], the IC50 was in the range of 0.001 to 0.01 µM.
Molecule `CN(C)C(=O)c1ccc(-c2ccc(Nc3cncc(N4CCOCC4=O)c3)nc2)cc1` [Example 47, N,N-dimethyl-4-(6-((5-(3-oxomorpholino)pyridin-3-yl)amino)pyridin-3-yl)benzamide] gave an IC50 of 0.1 to 1 µM.
With `CN(C)C(=O)c1ccc(-c2ccc(Nc3cncc(CCN4CCOCC4)c3)nc2)cc1` [Example 48, N,N-dimethyl-4-(6-((5-(2-morpholinoethyl)pyridin-3-yl)amino)pyridin-3-yl)benzamide] the figure was 0.1 to 1 µM.
In the case of `CN(C)C(=O)c1ccc(-c2ccc(Nc3cncc(N(C)C(=O)C4CC4c4ccccc4)c3)nc2)cc1` (stereo not shown) [Example 52, N,N-dimethyl-4-(6-((5-(N-methyl-2-phenylcyclopropane-1-carboxamido)pyridin-3-yl)amino)pyridin-3-yl)benzamide], the IC50 was in the range of 0.01 to 0.1 µM.
Take `CN(C)C(=O)c1ccc(-c2ccc(Nc3cncc(N4Cc5ccccc5C4=O)c3)nc2)cc1` [Example 53, N,N-dimethyl-4-(6-((5-(1-oxoisoindolin-2-yl)pyridin-3-yl)amino)pyridin-3-yl)benzamide]: the IC50 fell in the range of 0.01 to 0.1 µM.
To `CN(C)C(=O)c1ccc(-c2ccc(Nc3ccc(=O)n(Cc4ccccc4)c3)nc2)cc1` [Example 54, 4-(6-((1-benzyl-6-oxo-1,6-dihydropyridin-3-yl)amino)pyridin-3-yl)-N,N-dimethylbenzamide] belongs greater than 1 µM; to `CN(C)C(=O)c1ccc(-c2ccc(Nc3cncc(CC(=O)NCc4cccnc4)c3)nc2)cc1` [Example 56, N,N-dimethyl-4-(6-((5-(2-oxo-2-((pyridin-3-ylmethyl)amino)ethyl)pyridin-3-yl)amino)pyridin-3-yl)benzamide], 0.1 to 1 µM; to `CC(C)[C@@H]1NC(=O)N(c2cncc(Nc3ccc(-c4ccc(C(=O)N(C)C)cc4)cn3)c2)C1=O` [Example 57, (S)-4-(6-((5-(4-isopropyl-2,5-dioxoimidazolidin-1-yl)pyridin-3-yl)amino)pyridin-3-yl)-N,N-dimethylbenzamide], 0.1 to 1 µM.
To `CN(C)S(=O)(=O)c1ccc(-c2ccc(Nc3cccnc3)nc2)cc1` [Example 63, N,N-dimethyl-4-(6-(pyridin-3-ylamino)pyridin-3-yl)benzenesulfonamide] belongs 0.1 to 1 µM; to `CC(=O)N(C)c1ccc(-c2ccc(Nc3cccnc3)nc2)cc1` [Example 64, N-methyl-N-(4-(6-(pyridin-3-ylamino)pyridin-3-yl)phenyl)acetamide], greater than 1 µM; to `Cn1cnnc1-c1ccc(-c2ccc(Nc3cccnc3)nc2)cc1` [Example 65, 5-(4-(4-methyl-4H-1,2,4-triazol-3-yl)phenyl)-N-(pyridin-3-yl)pyridin-2-amine], 0.1 to 1 µM.
To `O=C(c1ccc(-c2ccc(Nc3cccnc3)nc2)cc1)N1CCCC1` [Example 66, (4-(6-(pyridin-3-ylamino)pyridin-3-yl)phenyl)(pyrrolidin-1-yl)methanone] belongs greater than 1 µM; to `CN(Cc1ccccc1)C(=O)c1ccc(-c2ccc(Nc3cccnc3)nc2)cc1` [Example 67, N-benzyl-N-methyl-4-(6-(pyridin-3-ylamino)pyridin-3-yl)benzamide], 0.1 to 1 µM.
In turn, `CCN(C)C(=O)c1ccc(-c2ccc(Nc3cccnc3)nc2)cc1` [Example 68, N-ethyl-N-methyl-4-(6-(pyridin-3-ylamino)pyridin-3-yl)benzamide] displayed an IC50 of 0.1 to 1 µM.
With `CN(Cc1ccco1)C(=O)c1ccc(-c2ccc(Nc3cccnc3)nc2)cc1` [Example 69, N-(furan-2-ylmethyl)-N-methyl-4-(6-(pyridin-3-ylamino)pyridin-3-yl)benzamide] the figure was 0.1 to 1 µM.
As to `CN(Cc1cccnc1)C(=O)c1ccc(-c2ccc(Nc3cccnc3)nc2)cc1` [Example 70, N-methyl-4-(6-(pyridin-3-ylamino)pyridin-3-yl)-N-(pyridin-3-ylmethyl)benzamide], the IC50 was greater than 1 µM.
`CN(C)C(=O)c1ccc(-c2ccc(Nc3cncc(N4CCN(C)C4=O)c3)nc2)cc1` [Example 72, N,N-dimethyl-4-(6-((5-(3-methyl-2-oxoimidazolidin-1-yl)pyridin-3-yl)amino)pyridin-3-yl)benzamide] yielded an IC50 of 0.01 to 0.1 µM.
With `COc1ccc(CN2CCN(c3cncc(Nc4ccc(-c5ccc(C(=O)N(C)C)cc5)cn4)c3)C2=O)cc1` [Example 74, 4-(6-((5-(3-(4-methoxybenzyl)-2-oxoimidazolidin-1-yl)pyridin-3-yl)amino)pyridin-3-yl)-N,N-dimethylbenzamide] the figure was 0.001 to 0.01 µM; with `CN(C)C(=O)c1ccc(-c2ccc(Nc3cncc(N4CCNC4=O)c3)nc2)cc1` [Example 75, N,N-dimethyl-4-(6-((5-(2-oxoimidazolidin-1-yl)pyridin-3-yl)amino)pyridin-3-yl)benzamide], 0.01 to 0.1 µM; with `CN(C)C(=O)c1ccc(-c2ccc(Nc3cncc(N4CCN(Cc5cccnc5)C4=O)c3)nc2)cc1` [Example 76, N,N-dimethyl-4-(6-((5-(2-oxo-3-(pyridin-3-ylmethyl)imidazolidin-1-yl)pyridin-3-yl)amino)pyridin-3-yl)benzamide], 0.001 to 0.01 µM.
With `CN(C)C(=O)c1ccc(-c2ccc(Nc3cncc(N4CCN(CC5CCCO5)C4=O)c3)nc2)cc1` (stereo not shown) [Example 77, N,N-dimethyl-4-(6-((5-(2-oxo-3-((tetrahydrofuran-2-yl)methyl)imidazolidin-1-yl)pyridin-3-yl)amino)pyridin-3-yl)benzamide], the IC50 fell in the range of 0.01 to 0.1 µM.
`CN(C)C(=O)c1ccc(-c2ccc(Nc3cncc(N4CCN(Cc5cscn5)C4=O)c3)nc2)cc1` [Example 78, N,N-dimethyl-4-(6-((5-(2-oxo-3-(thiazol-4-ylmethyl)imidazolidin-1-yl)pyridin-3-yl)amino)pyridin-3-yl)benzamide] displayed an IC50 of 0.001 to 0.01 µM.
`CN(C)C(=O)c1ccc(-c2ccc(Nc3cncc(N4CCN(CC5CC5)C4=O)c3)nc2)cc1` [Example 79, 4-(6-((5-(3-(cyclopropylmethyl)-2-oxoimidazolidin-1-yl)pyridin-3-yl)amino)pyridin-3-yl)-N,N-dimethylbenzamide] showed an IC50 of 0.01 to 0.1 µM.
On to `O=C1CCCN1c1ccc(-c2ccc(Nc3cccnc3)nc2)cc1` [Example 82, 1-(4-(6-(pyridin-3-ylamino)pyridin-3-yl)phenyl)pyrrolidin-2-one], for which the IC50 lay within 0.1 to 1 µM.
For the molecule `CN(C)C(=O)c1ccc(-c2ccc(Nc3cnc4c(c3)N(S(C)(=O)=O)CCO4)nc2)cc1` [Example 217, N,N-dimethyl-4-(6-((1-(methylsulfonyl)-2,3-dihydro-1H-pyrido[2,3-b][1,4]oxazin-7-yl)amino)pyridin-3-yl)bnzamide], the IC50 lay within 0.01 to 0.1 µM.
